Legend:
[1] = target: T1, Alpha-2C adrenergic receptor (Homo sapiens, UniProt P18825); assay: DRUGMATRIX: Adrenergic Alpha-2C radioligand binding (ligand: [3H] MK-912); assay type: cell membranes, Sf9, Membrane; conditions: sf9
T1 sequence (P18825 whole entry): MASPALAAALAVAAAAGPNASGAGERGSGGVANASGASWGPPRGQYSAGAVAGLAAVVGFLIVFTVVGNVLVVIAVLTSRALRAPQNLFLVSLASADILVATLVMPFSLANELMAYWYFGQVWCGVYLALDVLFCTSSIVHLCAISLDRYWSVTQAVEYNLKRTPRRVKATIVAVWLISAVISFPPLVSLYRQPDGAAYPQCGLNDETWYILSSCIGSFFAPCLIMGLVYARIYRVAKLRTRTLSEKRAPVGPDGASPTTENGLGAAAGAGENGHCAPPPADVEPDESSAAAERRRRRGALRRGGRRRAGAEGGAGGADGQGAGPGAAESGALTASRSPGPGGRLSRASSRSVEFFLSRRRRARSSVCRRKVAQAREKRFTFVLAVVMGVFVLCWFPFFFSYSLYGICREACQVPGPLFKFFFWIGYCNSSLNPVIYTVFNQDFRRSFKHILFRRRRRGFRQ

[2] = target: T2, Vasoactive intestinal polypeptide receptor 1 (Homo sapiens, UniProt P32241); assay type: cell membranes, Membrane; conditions: ht-29; further: in other assays of this panel Not Active means under 50% inhibition at 10 µM
T2 sequence (P32241 whole entry): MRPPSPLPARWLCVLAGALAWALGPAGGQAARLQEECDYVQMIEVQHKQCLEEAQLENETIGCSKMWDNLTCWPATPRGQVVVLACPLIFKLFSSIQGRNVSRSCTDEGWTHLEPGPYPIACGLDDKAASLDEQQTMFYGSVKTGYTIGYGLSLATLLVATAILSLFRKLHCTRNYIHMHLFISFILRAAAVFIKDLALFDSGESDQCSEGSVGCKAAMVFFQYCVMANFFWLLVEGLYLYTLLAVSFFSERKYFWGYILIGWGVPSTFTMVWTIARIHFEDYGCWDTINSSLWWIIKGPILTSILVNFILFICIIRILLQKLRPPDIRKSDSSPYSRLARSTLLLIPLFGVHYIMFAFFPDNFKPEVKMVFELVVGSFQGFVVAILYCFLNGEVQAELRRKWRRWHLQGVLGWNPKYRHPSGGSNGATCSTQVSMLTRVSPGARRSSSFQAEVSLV

[3] = DRUGMATRIX: GABAA, Muscimol, Central radioligand binding (ligand: [3H] Muscimol); assay type: cell membranes, Rattus norvegicus, Wistar, Brain, Membrane; conditions: Not Active = under 50% inhibition at 10 µM
Insulin receptor = Insulin receptor (Rattus norvegicus, UniProt P15127); assay type: cell membranes, Wistar, Liver, Membrane; further: in other assays of this panel Not Active means under 50% inhibition at 10 µM
[4] = target: T3, Neuropeptide Y receptor type 2 (Homo sapiens, UniProt P49146); assay type: cell membranes, Membrane; conditions: kan-ts; further: in other assays of this panel Not Active means under 50% inhibition at 10 µM
T3 sequence (P49146 whole entry): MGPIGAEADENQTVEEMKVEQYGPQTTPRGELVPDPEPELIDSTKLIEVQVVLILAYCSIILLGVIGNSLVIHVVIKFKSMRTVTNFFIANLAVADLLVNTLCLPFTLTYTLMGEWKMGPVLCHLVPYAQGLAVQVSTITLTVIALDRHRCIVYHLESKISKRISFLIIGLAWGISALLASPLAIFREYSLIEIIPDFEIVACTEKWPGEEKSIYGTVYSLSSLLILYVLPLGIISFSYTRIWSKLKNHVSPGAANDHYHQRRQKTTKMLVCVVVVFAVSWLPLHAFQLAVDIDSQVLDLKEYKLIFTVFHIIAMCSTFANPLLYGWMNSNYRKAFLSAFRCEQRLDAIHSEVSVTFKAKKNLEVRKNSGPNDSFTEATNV

[5] = target: Delta-type opioid receptor (Homo sapiens, UniProt P41143); assay type: cell membranes, HEK293, Membrane; conditions: hek293; further: in other assays of this panel Not Active means under 50% inhibition at 10 µM
[6] = DRUGMATRIX: Potassium Channel [KATP] radioligand binding (ligand: [3H] Glyburide); assay type: cell membranes, Membrane; conditions: hit-t15; Not Active = under 50% inhibition at 10 µM
Caspase-1 = target: T4, Caspase-1 (Homo sapiens, UniProt P29466); parameters: species or system Escherichia coli
T4 sequence (P29466 whole entry): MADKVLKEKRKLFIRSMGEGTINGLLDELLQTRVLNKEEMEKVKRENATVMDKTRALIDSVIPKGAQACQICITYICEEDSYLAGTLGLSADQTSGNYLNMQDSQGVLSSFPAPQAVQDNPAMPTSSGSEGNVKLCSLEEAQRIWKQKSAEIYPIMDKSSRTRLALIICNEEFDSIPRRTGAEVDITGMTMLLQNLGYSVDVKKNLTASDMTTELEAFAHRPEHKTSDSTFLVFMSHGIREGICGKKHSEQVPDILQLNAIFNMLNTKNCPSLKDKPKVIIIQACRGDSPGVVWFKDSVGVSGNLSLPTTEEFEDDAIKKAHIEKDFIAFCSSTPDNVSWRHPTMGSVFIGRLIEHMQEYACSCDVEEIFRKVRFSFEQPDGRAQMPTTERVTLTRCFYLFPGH

Chain of Insulin receptor (P15127 27-759 limits assumed): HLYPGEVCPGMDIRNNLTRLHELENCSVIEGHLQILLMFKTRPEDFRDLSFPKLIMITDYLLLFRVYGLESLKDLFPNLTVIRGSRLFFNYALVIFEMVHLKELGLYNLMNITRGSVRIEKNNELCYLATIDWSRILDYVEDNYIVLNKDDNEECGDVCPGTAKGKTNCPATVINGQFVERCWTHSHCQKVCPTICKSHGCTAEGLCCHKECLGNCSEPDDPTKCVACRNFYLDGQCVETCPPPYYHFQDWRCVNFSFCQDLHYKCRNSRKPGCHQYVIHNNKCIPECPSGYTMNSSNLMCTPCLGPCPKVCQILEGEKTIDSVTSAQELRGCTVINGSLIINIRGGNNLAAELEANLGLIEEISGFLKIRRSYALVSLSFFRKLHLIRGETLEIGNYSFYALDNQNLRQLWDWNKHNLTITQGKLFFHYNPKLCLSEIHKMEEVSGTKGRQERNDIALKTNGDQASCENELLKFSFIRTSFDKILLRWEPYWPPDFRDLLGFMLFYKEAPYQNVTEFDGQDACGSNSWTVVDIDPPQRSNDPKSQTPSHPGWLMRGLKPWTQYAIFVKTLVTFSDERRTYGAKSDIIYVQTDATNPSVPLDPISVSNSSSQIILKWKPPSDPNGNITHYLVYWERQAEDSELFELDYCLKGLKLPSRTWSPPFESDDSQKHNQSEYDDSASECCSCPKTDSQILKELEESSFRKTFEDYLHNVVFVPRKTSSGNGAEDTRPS
Chain of Insulin receptor (P15127 764-1383 limits assumed): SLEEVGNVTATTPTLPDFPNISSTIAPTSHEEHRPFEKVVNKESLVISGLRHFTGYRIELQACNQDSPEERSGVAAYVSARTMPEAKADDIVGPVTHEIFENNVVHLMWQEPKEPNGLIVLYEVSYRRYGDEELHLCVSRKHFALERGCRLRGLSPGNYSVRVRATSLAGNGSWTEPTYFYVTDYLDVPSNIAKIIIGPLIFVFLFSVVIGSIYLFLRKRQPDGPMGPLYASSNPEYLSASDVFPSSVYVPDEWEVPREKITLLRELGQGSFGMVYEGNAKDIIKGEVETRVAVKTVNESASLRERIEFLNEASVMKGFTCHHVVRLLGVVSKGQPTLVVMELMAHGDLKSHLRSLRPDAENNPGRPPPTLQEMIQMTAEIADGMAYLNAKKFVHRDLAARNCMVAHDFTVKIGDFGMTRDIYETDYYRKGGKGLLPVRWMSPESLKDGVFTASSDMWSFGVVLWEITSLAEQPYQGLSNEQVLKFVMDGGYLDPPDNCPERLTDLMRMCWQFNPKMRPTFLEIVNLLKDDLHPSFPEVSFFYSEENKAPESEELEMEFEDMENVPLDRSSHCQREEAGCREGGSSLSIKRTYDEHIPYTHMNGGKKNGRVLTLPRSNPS
Chain of Delta-type opioid receptor (P41143 whole entry): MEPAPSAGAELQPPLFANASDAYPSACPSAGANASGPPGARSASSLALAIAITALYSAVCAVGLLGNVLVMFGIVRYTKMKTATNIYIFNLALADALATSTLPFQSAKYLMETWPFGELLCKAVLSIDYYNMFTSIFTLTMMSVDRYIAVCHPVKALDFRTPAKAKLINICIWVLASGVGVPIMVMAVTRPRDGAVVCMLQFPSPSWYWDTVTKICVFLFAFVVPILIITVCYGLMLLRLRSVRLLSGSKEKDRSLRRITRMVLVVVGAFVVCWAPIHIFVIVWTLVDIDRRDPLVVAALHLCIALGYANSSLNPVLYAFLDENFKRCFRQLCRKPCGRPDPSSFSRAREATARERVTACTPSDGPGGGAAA

COc1ccc(C[C@H]2NC[C@H](O)[C@H]2OC(C)=O)cc1 [ANISOMYCIN]
Not Active: IC50 [1] | Ki [1] | IC50 [2] | Ki [2] | IC50 [3] | Ki [3] | IC50 (Insulin receptor) | Ki (Insulin receptor) | IC50 [4] | Ki [4] | IC50 [5] | Ki [5] | IC50 [6] | Ki [6] | IC50 (Caspase-1) | Ki (Caspase-1)
